Assay [1] deals with GH361. Description: MIC of ceftriaxone for GH361. The format is cell-based, B. thetaiotaomicron. As to conditions: Bacteroides thetaiotaomicron. The procedure: “α-mannan is a fungal cell wall glycan that contains α-mannosidic linkages similar to those found in the core regions of N-linked glycans present on secreted mucus and epithelial surfaces” (Martens et al., 2011). However, expression levels of the PUL genes involved in mannan utilization in mice fed a diet lacking exogenous α-mannan were only partial when compared to other PULs showing high activity in vivo (Martens et al., 2008). The effectiveness of the mannan induced system was tested in vivo in seven-week-old male C57BL/6J WT mice with established B. thetaiotaomicron within the intestine, housed in a conventional animal facility after treating for 3 days with 1 mg/ml ampicillin and 1 mg/ml neomycin administered via drinking water. To achieve this, the strain GH361 containing the BtCepA gene controlled by the inducible low expression system (Table 1) was administered by oral gavage (1×10^8 colony-forming units (CFU) in 100 μl of phosphate buffered saline) to two groups of 4 mice. […] The MICs of ceftriaxone determined for GH361 were 8 mg/L when cells were grown in the absence of mannan and 64 mg/L when mannan was added to the growth medium. […]

For assay [2], the system named is GH361. The experiment in a line: Mannan-induced BtCepA expression in the mouse gut (ceftriaxone challenge, fecal CFU). The format is in vivo, mice. The source says:
FIG. 4. In vivo induction of ceftriaxone resistance using exogenous α-mannan. Crosses indicate times of i.p. injections. GA: Group A of mice received mannan in their drinking water. GB: Group B of mice which were given access to regular drinking water. CRO: ceftriaxome.
“α-mannan is a fungal cell wall glycan that contains α-mannosidic linkages similar to those found in the core regions of N-linked glycans present on secreted mucus and epithelial surfaces” (Martens et al., 2011). However, expression levels of the PUL genes involved in mannan utilization in mice fed a diet lacking exogenous α-mannan were only partial when compared to other PULs showing high activity in vivo (Martens et al., 2008). The effectiveness of the mannan induced system was tested in vivo in seven-week-old male C57BL/6J WT mice with established B. thetaiotaomicron within the intestine, housed in a conventional animal facility after treating for 3 days with 1 mg/ml ampicillin and 1 mg/ml neomycin administered via drinking water. To achieve this, the strain GH361 containing the BtCepA gene controlled by the inducible low expression system (Table 1) was administered by oral gavage (1×10^8 colony-forming units (CFU) in 100 μl of phosphate buffered saline) to two groups of 4 mice. One of the groups (Group A) were given drinking water with containing 2.5% (v/v) mannan-oligosaccharide supplement (ActiveMOS, Orffa, Werkendam, The Netherlands) prepared treating the powder (10% w/v) with 1% NaOH at 100° C. for 1 h, cooling and neutralizing to pH7 with dilute HCl solution (Huang et al., 2010). […] Both groups of mice were challenged every other day via i.p. injection with ceftriaxone (0.4 mg/mice), a third-generation cephalosporin that is excreted via the biliary route and affects the colonic microbiota (Arvidsson et al., 1982). The MICs of ceftriaxone determined for GH361 were 8 mg/L when cells were grown in the absence of mannan and 64 mg/L when mannan was added to the growth medium. […]

Another assay concerns B. thetaiotaomicron. Description: Minimum inhibitory concentration of ampicillin for variant strains with or without mannan. The format is cell-based. As to conditions: Bacteroides thetaiotaomicron, read-out: minimum inhibitory concentration (MIC) of ampicillin. The source says: Since optimization of this novel gene expression system was based upon the use of a heterologous reporter gene, the system was validated by determining if it can be used to study B. thetaiotaomicron genes. For this purpose, the complementation of a deletion mutant of BtcepA (Stentz et al., 2015), a cephalosporinase gene involved in the resistance of bacterial cells to β-lactam antibiotics, was undertaken. The primer pair Lactamase_F and Lactamase_EcoRI_R was used to amplify an 885-bp region from B. thetaiotaomicron VPI-5482 genomic DNA encoding BtcepA. […] The β-lactamase activity was measured after 2 h of induction with increasing concentrations of mannan (Table 4). […] Periplasmic proteins were prepared as described by Stentz et al. (Stentz et al., 2015). β-lactamase activity was assessed spectrophotometrically by hydrolysis of nitrocefin according to the manufacturer's instructions (Calbiochem). […] The basal level measured for the low expression system was negligible since it represented only 2.7% of the activity measured for the wild-type control strain. To establish how these measured activities translate into resistance to β-lactam antibiotics the minimum inhibitory concentration (MIC) of the β-lactam antibiotic ampicillin was determined for each variant strain grown in the presence or absence of mannan.

Structures are written as SMILES. In brackets after ≈: the same amount, converted by molar mass. Where two headings read alike, the source gives them in different places.

As to `CO/N=C(\C(=O)N[C@@H]1C(=O)N2C(C(=O)O)=C(CSc3nc(=O)c(=O)[nH]n3C)CS[C@H]12)c1csc(N)n1` [ceftriaxone], the MIC in the assay with GH361 [1] (read-out: MIC of ceftriaxone, GH361, mannan added to the growth medium) was 64 mg/L; with GH361 [1] (read-out: MIC of ceftriaxone, GH361 grown in the absence of mannan), 8 mg/L. Further, the “effect on GH361 population levels” value in the assay with GH361 [2] (ceftriaxone increased to 0.8 mg, both groups) is listed as “decreased significantly”. Besides, the “effect on levels of GH361 (CFU in fecal samples)” value with GH361 [2] (group A given mannan in drinking water, three successive i.p. doses 0.4 mg/mice) was “no effect”. Further, the “decrease of levels of GH361 (CFU in fecal samples)” value with GH361 [2] (group B not given mannan, three successive i.p. doses 0.4 mg/mice) was “approximately 15 fold”.

Take `CC1(C)S[C@@H]2[C@H](NC(=O)[C@H](N)c3ccccc3)C(=O)N2[C@H]1C(=O)O` [ampicillin]: the MIC in the assay on B. thetaiotaomicron was in the range of 4 to 2050 mg/L (≈ 11.4 to 5860 µM).

The record behind these values is US11000581B2, “Engineering gut commensal bacteria to express heterologous proteins in their outer membrane vesicles (OMVs) for delivery to the GI-tract” (QUADRAM INSTITUTE BIOSCIENCE, priority 2016, dated 2021).
